Assay results taken from patent US12157746B2, “Tetrahydro-1H-pyrazino[2,1-a]isoindolylquinoline compounds for the treatment of autoimmune disease” (F. HOFFMANN-LA ROCHE AG, priority 2018, dated 2024).

Assay: Human microsomal stability assay
Assay type: in vitro ADME
Conditions: human liver microsomes 0.5 mg/mL, 37° C., pH 7.4, NADPH regenerating system, 0-30 minutes
Protocol: Human Microsomal Stability Assay
Human liver microsomes (Cat. NO.: 452117, Corning, USA) were preincubated with test compound for 10 minutes at 37° C. in 100 mM potassium phosphate buffer, pH 7.4. The reactions were initiated by adding NADPH regenerating system. The final incubation mixtures contained […] test compound, 0.5 mg/mL liver microsomal protein, 1 mM MgCl2, 1 mM NADP, 1 unit/mL isocitric dehydrogenase and 6 mM isocitric acid in 100 mM potassium phosphate buffer, pH 7.4. After incubation times of 0, 3, 6, 9, 15 and 30 minutes at 37° C., 300 μL of cold ACN (including internal standard) was added to 100 μL incubation mixture to terminate the reaction. Following precipitation and centrifugation, 100 μL supernatant will be taken out and added 300 uL water. The amount of compound remaining in the samples was determined by LC-MS/MS. Controls of no NADPH regenerating system at zero and 30 minutes were also prepared and analyzed. The results were categorized as: low (<7.0 mLJmin/kg), medium (7.0-16.2 mL/min/kg) and high (16.2-23.2 mLJmin/kg).
In the case of `C[C@@H]1CN(c2ccc(C#N)c3ncccc23)C[C@@H]2c3ccc(C(=O)N4C[C@@H]5C[C@H]4CN5)cc3CN12` [Example 87, 5-[(4R,10bS)-8-[(1S,4S)-2,5-diazabicyclo[2.2.1]heptane-2-carbonyl]-4-methyl-3,4,6,10b-tetrahydro-1H-pyrazino[2,1-a]isoindol-2-yl]quinoline-8-carbonitrile], the “CL (h)” value is reported as 0.48 L/h/kg.
In the case of `C[C@@H]1CN(c2ccc(C#N)c3ncccc23)C[C@@H]2c3ccc(C(=O)N4CCNCC4)cc3CN12` [Example 86, 5-[(4R,10bS)-4-methyl-8-(piperazine-1-carbonyl)-3,4,6,10b-tetrahydro-1H-pyrazino[2,1-a]isoindol-2-yl]quinoline-8-carbonitrile], the “CL (h)” value is reported as 0.462 L/h/kg.
With `C[C@@H]1CN(c2ccc(C#N)c3ncccc23)C[C@@H]2c3ccc(OC4CNC4)cc3CN12` [Example 27, 5-[(4R,10bS)-8-(azetidin-3-yloxy)-4-methyl-3,4,6,10b-tetrahydro-1H-pyrazino[2,1-a]isoindol-2-yl]quinoline-8-carbonitrile] the “CL (h)” value was 0.462 L/h/kg.
For `C[C@@H]1CN(c2ccc(C#N)n3nccc23)C[C@@H]2c3ccc(N4CCC(C)(N)CC4)cc3CN12` [Example 100, 4-[(4R,10bS)-8-(4-amino-4-methyl-1-piperidyl)-4-methyl-3,4,6,10b-tetrahydro-1H-pyrazino[2,1-a]isoindol-2-yl]pyrazolo[1,5-a]pyridine-7-carbonitrile], the “CL (h)” value was 0.48 L/h/kg.
